Results on 14 compounds are retold here after PubChem BioAssay AID328 (DTP/NCI, 2004).

The subject of the assay is BDF1 mice, P388 leukemia ip, median survival T/C. Briefly: NCI In Vivo Anticancer Drug Screen. Data for tumor model P388 Leukemia (intraperitoneal) in B6D2F1 (BDF1) mice. The conditions noted are these: endpoint: median survival time, higher = longer survival. The procedure, abridged: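 Reported as T/C, where T is the survival measurement in dosed animals and C the same measurement in vehicle controls.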

[1] abbreviates: dose: 100.0 mg/kg/injection, schedule: Q04DX003 (ip), vehicle: saline sonified.
[2] abbreviates: dose: 200.0 mg/kg/injection, schedule: Q04DX003 (ip), vehicle: saline.
[3] abbreviates: dose: 1.0 mg/kg/injection, schedule: Q01DX010 (ip), vehicle: saline.
Setting [4] is: dose: 2.0 mg/kg/injection, schedule: Q01DX010 (ip), vehicle: saline.

Several values for one entry are separate records, joined by “and”; a condition that tells them apart may be missing. Equal entries are not always repeated. Toxic doses and inconclusive results are not listed.

`O=C1NC2(CCCCCC2)C(=O)N1CN1CCOCC1`: the T/C by setting is: (dose: 25.0 mg/kg/injection, schedule: Q04DX003 (ip), vehicle: saline sonified) 90 % of control; (dose: 50.0 mg/kg/injection, schedule: Q04DX003 (ip), vehicle: saline sonified) 95 % of control; under setting [1], 104 % of control.
Turning to `CCN(CC)CCNc1ccc(CO)c2sc3ccccc3c(=O)c12`, the T/C is, setting by setting: (dose: 17.3 mg/kg/injection, schedule: Q01DX009 (ip), vehicle: water) 108 % of control; (dose: 18.75 mg/kg/injection, schedule: Q01DX009 (ip), vehicle: saline) 104 % of control; (dose: 21.6 mg/kg/injection, schedule: Q01DX009 (ip), vehicle: water) 119 % of control; (dose: 28.8 mg/kg/injection, schedule: Q01DX009 (ip), vehicle: water) 122 % of control; (dose: 42.0 mg/kg/injection, schedule: Q01DX009 (ip), vehicle: water) 150 % of control; (dose: 48.0 mg/kg/injection, schedule: Q01DX009 (ip), vehicle: water) 170 % of control. For the same compound, the T/C runs as follows: (dose: 60.0 mg/kg/injection, schedule: Q01DX009 (ip), vehicle: water) 160 % of control; (dose: 70.0 mg/kg/injection, schedule: Q01DX009 (ip), vehicle: water) 122 % of control; (dose: 75.0 mg/kg/injection, schedule: Q01DX009 (ip), vehicle: saline) 116 % of control; (dose: 80.0 mg/kg/injection, schedule: Q01DX009 (ip), vehicle: water) 188 % of control; (dose: 88.0 mg/kg/injection, schedule: Q04DX003 (ip), vehicle: saline) 109 % of control; (dose: 100.0 mg/kg/injection, schedule: Q01DX009 (ip), vehicle: water) 113 % of control. Further, the T/C reads like this: (dose: 117.0 mg/kg/injection, schedule: Q01DX009 (ip), vehicle: water) 97 % of control; (dose: 132.0 mg/kg/injection, schedule: Q04DX003 (ip), vehicle: saline) 109 % of control; under setting [2], 122 % of control; (dose: 300.0 mg/kg/injection, schedule: Q04DX003 (ip), vehicle: saline) 163 % of control.
As for `O=[N+]([O-])c1ccc(/C=C/c2ncccn2)o1`, the T/C is 100 % of control (dose: 100.0 mg/kg/injection, schedule: Q04DX003 (ip), vehicle: Klucel (hydroxypropylcellulose) (HPC)); 100 % of control (dose: 200.0 mg/kg/injection, schedule: Q04DX003 (ip), vehicle: Klucel (hydroxypropylcellulose) (HPC)); 100 % of control (dose: 400.0 mg/kg/injection, schedule: Q04DX003 (ip), vehicle: Klucel (hydroxypropylcellulose) (HPC)).
`C[C@@H]1C[C@@]2(C)[C@@H](CC[C@@H]3[C@@H]2CC[C@]2(C)[C@@H](O)CC[C@@H]32)C[C@@H]1O`: the T/C was 100 % of control (dose: 220.0 mg/kg/injection, schedule: Q01DX010 (sc), vehicle: steriod suspending solution) and 115 % of control (dose: 440.0 mg/kg/injection, schedule: Q01DX010 (sc), vehicle: steriod suspending solution).
On to `Cc1ncc([N+](=O)[O-])n1CCn1nnc2c1CCCC2`, for which the T/C was 210 % of control (dose: 200.0 mg/kg/injection, schedule: Q04DX003 (ip), vehicle: saline with Tween-80) and 114 % of control (dose: 400.0 mg/kg/injection, schedule: Q04DX003 (ip), vehicle: saline with Tween-80).
`CC1C(=O)OC2CCN3CC4OC4(COC(=O)C(C)(O)C1(C)O)C23` (stereo not given): the T/C runs as follows: (dose: 50.0 mg/kg/injection, schedule: Q01DX009 (ip), vehicle: Klucel (hydroxypropylcellulose) (HPC)) 95 % of control; (dose: 100.0 mg/kg/injection, schedule: Q01DX009 (ip), vehicle: Klucel (hydroxypropylcellulose) (HPC)) 95 % of control; under setting [1], 108 % of control; (dose: 200.0 mg/kg/injection, schedule: Q01DX009 (ip), vehicle: Klucel (hydroxypropylcellulose) (HPC)) 100 % of control; (dose: 400.0 mg/kg/injection, schedule: Q04DX003 (ip), vehicle: saline sonified) 95 % of control.
For the compound `CS(=O)(=O)OCCN(CCOS(C)(=O)=O)c1ccc(N=O)cc1`, the T/C by setting is: (dose: 0.5 mg/kg/injection, schedule: Q01DX010 (ip), vehicle: saline) 122 % of control; under setting [3], 104 % of control; under setting [4], 86 % of control and 113 % of control; (dose: 62.5 micrograms/kg/injection, schedule: Q01DX010 (ip), vehicle: saline) 158 % of control; (dose: 125.0 micrograms/kg/injection, schedule: Q01DX010 (ip), vehicle: saline) 166 % of control.
For `O=[N+]([O-])c1ccc(N2CCN(c3ccc([N+](=O)[O-])c4c3no[n+]4[O-])CC2)c2c1no[n+]2[O-]`, the T/C (dose: 15.0 mg/kg/injection, schedule: Q04DX003 (ip), vehicle: saline with Tween-80) is 111 % of control; the T/C (dose: 30.0 mg/kg/injection, schedule: Q04DX003 (ip), vehicle: saline with Tween-80) is 106 % of control; the T/C (dose: 60.0 mg/kg/injection, schedule: Q04DX003 (ip), vehicle: saline with Tween-80) was 101 % of control.
Regarding `CCOC(=O)CN(C)C#N`, the T/C is, setting by setting: (dose: 50.0 mg/kg/injection, schedule: Q01DX009 (ip), vehicle: saline) 110 % of control; (dose: 87.5 mg/kg/injection, schedule: Q01DX009 (ip), vehicle: saline) 109 % of control; (dose: 100.0 mg/kg/injection, schedule: Q01DX009 (ip), vehicle: saline) 105 % of control; (dose: 100.0 mg/kg/injection, schedule: Q04DX003 (ip), vehicle: saline) 104 % of control; (dose: 175.0 mg/kg/injection, schedule: Q01DX009 (ip), vehicle: saline) 104 % of control; under setting [2], 104 % of control. Also, the T/C is 109 % of control (dose: 265.0 mg/kg/injection, schedule: Q01DX009 (ip), vehicle: saline); 95 % of control (dose: 400.0 mg/kg/injection, schedule: Q01DX009 (ip), vehicle: saline); 104 % of control (dose: 400.0 mg/kg/injection, schedule: Q04DX003 (ip), vehicle: saline).
Take `CCCCCCCCCCN(CCCCCCCCCC)C1CC(OC2CC(O)(C(C)=O)Cc3c(O)c4c(c(O)c32)C(=O)c2c(OC)cccc2C4=O)OC(C)C1O` (stereo not given): the T/C (dose: 37.5 mg/kg/injection, schedule: Q04DX003 (ip), vehicle: other) was 99 % of control; the T/C (dose: 75.0 mg/kg/injection, schedule: Q04DX003 (ip), vehicle: other) is 103 % of control; the T/C (dose: 150.0 mg/kg/injection, schedule: Q04DX003 (ip), vehicle: other) is 94 % of control; the T/C (dose: 300.0 mg/kg/injection, schedule: Q04DX003 (ip), vehicle: other) was 99 % of control; the T/C (dose: 400.0 mg/kg/injection, schedule: Q04DX003 (ip), vehicle: other) is 90 % of control.
Regarding `COc1cc2cc3c4ccc(OC)c(OC)c4cc[n+]3c(C)c2cc1OC` (tested in a mixture with another compound), the T/C by setting is: (dose: 20.0 mg/kg/injection, schedule: Q01DX009 (ip), vehicle: saline) 164 % of control; (dose: 40.0 mg/kg/injection, schedule: Q01DX009 (ip), vehicle: saline) 150 % of control and 156 % of control; (dose: 80.0 mg/kg/injection, schedule: Q01DX009 (ip), vehicle: saline) 168 % of control and 172 % of control; (dose: 120.0 mg/kg/injection, schedule: Q01DX009 (ip), vehicle: saline) 172 % of control and 185 % of control.
For `C/C=C1/C[C@@H](C)[C@@](C)(O)C(=O)OCC2=CC[N+]3([O-])CC[C@@H](OC1=O)[C@@H]23` (stereo not given in full), the T/C is, setting by setting: (dose: 10.0 mg/kg/injection, schedule: Q01DX010 (ip), vehicle: saline) 109 % of control; (dose: 20.0 mg/kg/injection, schedule: Q01DX010 (ip), vehicle: saline) 104 % of control; (dose: 40.0 mg/kg/injection, schedule: Q01DX010 (ip), vehicle: saline) 113 % of control; (dose: 80.0 mg/kg/injection, schedule: Q01DX010 (ip), vehicle: saline) 109 % of control.
With `CC(C)NC(=O)c1ccccc1S(=O)c1ccccc1C(=O)NC(C)C`, the T/C runs as follows: (dose: 50.0 mg/kg/injection, schedule: Q01DX009 (ip), vehicle: saline with Tween-80) 104 % of control; (dose: 100.0 mg/kg/injection, schedule: Q01DX009 (ip), vehicle: saline with Tween-80) 100 % of control; (dose: 200.0 mg/kg/injection, schedule: Q01DX009 (ip), vehicle: saline with Tween-80) 108 % of control.
With `CCCCCCCCCCCC(c1ccccc1)[N+](C)(C)C` (stereo not given), the T/C is, setting by setting: under setting [3], 100 % of control; under setting [4], 104 % of control; (dose: 4.0 mg/kg/injection, schedule: Q01DX010 (ip), vehicle: saline) 116 % of control; (dose: 4.0 mg/kg/injection, schedule: Q04DX003 (ip), vehicle: saline) 113 % of control; (dose: 8.0 mg/kg/injection, schedule: Q04DX003 (ip), vehicle: saline) 118 % of control; (dose: 16.0 mg/kg/injection, schedule: Q04DX003 (ip), vehicle: saline) 100 % of control.
